The values that follow come from patent US20040235761A1, “Novel virus proliferaton inhibition/virucidal method and novel pyradine nucleotide/pyradine nucleoside analogue” (priority 2001, published 2004).

Experiment [1] has as its system influenza virus A/PR/8/34. The experiment can be described thus: Anti-influenza effect (plaque inhibition in MDCK cells). Format: cell-based. Conditions: PR/8, MDCK, 72 h, read-out: Inhibition rate (plaque inhibition rate).
The subject of experiment [2] is bovine diarrhea virus (BVDV) NADL. The experiment can be described thus: Anti-BVDV effect (plaque inhibition in MDBK cells). Format: cell-based. Conditions: Bovine viral diarrhea virus isolates and strains, 72 h, 100 μg/mL test compound, 70 PFU/well, 3 days, read-out: Inhibition rate (plaque inhibition rate). Here is the method:
MDBK cells that had fully grown in a 6-well culture plate were infected with bovine diarrhea virus (BVDV) NADL at 70 PFU/well. After 60 minutes, the infection solution was removed, and a test culture solution (E′-MEM) containing 5% horse serum and 1% agar (SeaPlaque Agar) that contained a 100 μg/mL test compound was added thereto. The mixture was fully solidified and then cultured for 3 days under conditions of 37° C., a humidity of 100% and 5% CO2. After completion of the culture, the test plate was fixed with a 3% formaldehyde solution, and the agar medium was removed with running water, followed by staining with a 1% crystal violet solution, so as to count the number of plaques. The plaque inhibition rate was expressed by the percentage obtained by comparing with a control to which no test compounds were added.

For experiment [3], the target named is Inosine monophosphate dehydrogenase (IMPDH). The experiment in a line: Inosine monophosphate dehydrogenase (IMPDH) inhibition test. The class given is biochemical. Conditions: IMPDH enzyme solution from MDCK cell homogenate, 37° C., 1 hour; read-out: 50% inhibition concentration. The procedure: MDCK cells monolayer-cultured on a culture plate were suspended in 0.05 M Tris-HCl (pH 8.0), and the suspension was homogenated with a Downs homogenizer to obtain a cell homogenate. The cell homogenate was centrifuged at 16000×g, and the thus obtained supernatant was used as an IMPDH enzyme solution.
As reaction compositions, 0.1 M Tris-HCl (pH 8.0), 0.1 M KCl, 30 mM EDTA, 5 mM NAD, 5 mg/mL bovine serum albumin, and 0.04 mM [8-^14C]-inosine 5′-monophosphate were used. After completion of reaction at 37° C. for 1 hour, 2 volumes of acetonitrile were added to terminate the reaction, and the reaction product was concentrated. The obtained concentrate was analyzed under the HPLC conditions indicated below. The ratio between the reaction substrate ([^14C]-inosine 5′-monophosphate) and the reaction product ([^14C]-xanthosine 5′-monophosphate) was obtained, and the reaction rate was calculated. Ribavirin monophosphate was used as a control compound.

Experiment [4] concerns the target T1, Influenza virus polymerase (crude enzyme from virus particles) (Influenza A virus, UniProt P03431).
T1 construct: these particles were used as polymerase crude enzymes; from tissue; host or cells: influenza virus particles lysed with Triton N101/LPC (crude enzyme)
The experiment in a line: Polymerase inhibition test (influenza virus). Format: biochemical. Particulars: 30° C., 60 minutes, 32P-GTP incorporation, read-out: 50% inhibition concentration. The procedure:
Influenza virus particles were treated with a dissolving solution (100 mM Tris-HCl (pH 8), 100 mM KCl, 5 mM MgCl2, 1.5 mM DTT, 5% glycerol, 1.5% Triton N101, 1% LPC), and these particles were used as polymerase crude enzymes. Each of the test compounds with different concentrations was added to a reaction buffer (100 mM Tris-HCl (pH 8.0), 100 mM KCl, 5 mM MgCl2, 1 mM DTT, 0.25% Triton N101, 0.25 mM ApG, 0.1 mM ATP, 0.05 mM CTP, 0.05 mM UTP, 0.0005 mM GTP, ^32P-GTP, crude enzyme), followed by incubation at 30° C. for 60 minutes. Thereafter, 10% trichloroacetic acid (TCA) was added thereto, and the mixture was retained on ice for 60 minutes. Thereafter, it was dropped on a GF/C filter, and the filter was then washed with 5% TCA. The filter was dried, and scintillation cocktail was added thereto. The radioactivity was determined using a liquid scintillation counter. The measurement value was given as a 50% inhibition concentration, providing that a group in which no test compounds were added was defined as 100%.

Experiment [5] addresses T2, HCV polymerase (NS5B region of hepatitis C virus) (Hepatitis C virus genotype 1a, UniProt P27958).
T2 construct: The NS5B region of hepatitis C virus was produced in Escherichia coli; made in house; host or cells: Escherichia coli
The experiment can be described thus: Polymerase inhibition test (hepatitis C virus). The class given is biochemical. The procedure:
The NS5B region of hepatitis C virus was produced in Escherichia coli, and it was used as HCV polymerase for the test. The sequence of the 3′-region of HCV was prepared by the in vitro transcription method, and it was used as an RNA template for the test.
Each of the test compounds with different concentrations was added to a reaction buffer (20 mM Tris-HCl (pH 8.0), 0.05 mM MnCl2, 1 mM DTT, 20 units RNase inhibitor, [α-^32P]GTP, 0.05 mM each of ATP, CTP and UTP, and 2 μg/mL RNA template), followed by incubation at 30° C. for 2 hours. Thereafter, 10% TCA was added to terminate the reaction. Thereafter, the reaction solution was dropped on a DE81 filter, and the filter was then washed with 5% TCA. The filter was dried, and scintillation cocktail was added thereto. The radioactivity was determined using a liquid scintillation counter. The measurement value was given as a 50% inhibition concentration, providing that a group in which no test compounds were added was defined as 100%.

[6] abbreviates: NS5B produced in Escherichia coli, 30° C., 2 hours, read-out: 50% inhibition concentration.

The structures appear in SMILES notation. Read-outs that look alike come from different tables or passages of the source.

Broadly, the inhibition is the change of the read-out against control, counted positive when it falls.

Regarding `CC(C)(C)C(=O)OCOP(=O)(OCOC(=O)C(C)(C)C)OC[C@H]1O[C@@H](n2ccnc(C(N)=O)c2=O)[C@H](O)[C@@H]1O` [Example 6, 2,2-dimethyl-propionic acid[(2R,3S,4R,5R)-5-(3-carbamoyl-2-oxo-2H-pyrazine-1-yl)-3,4-dihydroxy-tetrahydro-furan-2-ylmethoxy]-(2,2-dimethyl-propionyloxymethoxy)-phosphoryloxymethyl ester], the inhibition at 100 µg/mL in experiment [1] amounted to 100%; in experiment [2] it was 57%.

For `NC(=O)c1ncn([C@@H]2O[C@H](COP(=O)(O)O)[C@@H](O)[C@H]2O)n1` [Control compound, Ribavirin monophosphate, reference compound], the IC50 in experiment [3] amounted to 1.9 µM.

Regarding `NC(=O)c1nc(F)cn([C@@H]2O[C@H](COP(=O)(O)OP(=O)(O)OP(=O)(O)O)[C@@H](O)[C@H]2O)c1=O` [Reference Example 16, [[2R,3S,4R,5R]-5-[3-(aminocarbonyl)-5-fluoro-2-oxo-1(2H)-pyrazinyl]-3,4-dihydroxytetrahydro-2-furanyl]methyl triphosphate], the IC50 was found to be 0.14 µM in experiment [4] and 0.75 µM in experiment [5] (setting [6]).

As for `NC(=O)c1nccn([C@@H]2O[C@H](COP(=O)(O)O)[C@@H](O)[C@H]2O)c1=O` [Reference Example 30, {(2R,3S,4R,5R)-5-[3-(aminocarbonyl)-2-oxo-1(2H)-pyrazinyl]-3,4-dihydroxytetrahydro-2-furanyl}methyl phosphate], in experiment [3], the IC50 came out at 980 µM.

`Cc1cn([C@@H]2O[C@H](COP(=O)(O)OP(=O)(O)OP(=O)(O)O)[C@@H](O)[C@H]2O)c(=O)c(C(N)=O)n1` [Reference Example 23, {(2R,3S,4R,5R)-5-[3-(aminocarbonyl)-5-methyl-2-oxo-1(2H)-pyrazinyl]-3,4-dihydroxytetrahydro-2-furanyl}methyl triphosphate]: the IC50 in experiment [4] turned out to be 0.25 µM; in experiment [5] it was 2.2 µM.

As for `CC(C)(C)C(=O)SCCOP(=O)(OCCSC(=O)C(C)(C)C)OC[C@H]1O[C@@H](n2cc(Cl)nc(C(N)=O)c2=O)[C@H](O)[C@@H]1O` [Example 4, 2,2-dimethyl-thiopropionic acid S-(2-{[(2R,3S,4R,5R)-5-(3-carbamoyl-5-chloro-2-oxo-2H-pyrazine-1-yl)-3,4-dihydroxy-tetrahydro-furan-2-ylmethoxy]-[2-(2,2-dimethyl-propionylsulfanyl)-ethoxy]-phosphoryloxy]-ethyl) ester], in experiment [2], the inhibition at 100 µg/mL is 68%.

In the case of `NC(=O)c1nc(Cl)cn([C@@H]2O[C@H](COP(=O)(O)OP(=O)(O)OP(=O)(O)O)[C@@H](O)[C@H]2O)c1=O` [Reference Example 17, {(2R,3S,4R,5R)-5-[3-(aminocarbonyl)-5-chloro-2-oxo-1(2H)-pyrazinyl]-3,4-dihydroxytetrahydro-2-furanyl}methyl triphosphate], the IC50 in experiment [4] turned out to be 0.33 µM; in experiment [5] (setting [6]), 2.7 µM.

As to `NC(=O)c1nc(F)cn([C@@H]2O[C@H](CO)[C@@H](O)[C@H]2O)c1=O` [Example 32, 4-[(2R,3R,4S,5R)-3,4-dihydroxy-5-(hydroxymethyl)tetrahydro-2-furanyl]-6-fluoro-3-oxo-3,4-dihydro-2-pyrazinecarboxamide], the inhibition at 100 µg/mL in experiment [1] and in experiment [2] was 100% each time.

As to `NC(=O)c1nc(F)cn([C@@H]2O[C@H](COP(=O)(O)O)[C@@H](O)[C@H]2O)c1=O` [Example 37, [(2R,3S,4R,5R)-5-[3-(aminocarbonyl)-5-fluoro-2-oxo-1(2H)-pyrazinyl]-3,4-dihydroxytetrahydro-2-furanyl]methyl phosphate], in experiment [3], the IC50 stood at 740 µM.
